Activity calls are given as the source filed them.
How the values were obtained:
[1] = Luminescence Cell-Based Dose Retest to Confirm Inhibitors of Cancer Stem Cells. [Related pubchem assays (depositor defined):AID2717, AID2721]; format: functional; settings: Homo sapiens
[2] = target: T1, Insulin-degrading enzyme (Homo sapiens, UniProt P14735); test: activators of recombinant IDE enzyme, dose response, counter-screen for IDE activator project, biochemical, fluorescence polarization (AID 588681)
T1 sequence (P14735 whole entry): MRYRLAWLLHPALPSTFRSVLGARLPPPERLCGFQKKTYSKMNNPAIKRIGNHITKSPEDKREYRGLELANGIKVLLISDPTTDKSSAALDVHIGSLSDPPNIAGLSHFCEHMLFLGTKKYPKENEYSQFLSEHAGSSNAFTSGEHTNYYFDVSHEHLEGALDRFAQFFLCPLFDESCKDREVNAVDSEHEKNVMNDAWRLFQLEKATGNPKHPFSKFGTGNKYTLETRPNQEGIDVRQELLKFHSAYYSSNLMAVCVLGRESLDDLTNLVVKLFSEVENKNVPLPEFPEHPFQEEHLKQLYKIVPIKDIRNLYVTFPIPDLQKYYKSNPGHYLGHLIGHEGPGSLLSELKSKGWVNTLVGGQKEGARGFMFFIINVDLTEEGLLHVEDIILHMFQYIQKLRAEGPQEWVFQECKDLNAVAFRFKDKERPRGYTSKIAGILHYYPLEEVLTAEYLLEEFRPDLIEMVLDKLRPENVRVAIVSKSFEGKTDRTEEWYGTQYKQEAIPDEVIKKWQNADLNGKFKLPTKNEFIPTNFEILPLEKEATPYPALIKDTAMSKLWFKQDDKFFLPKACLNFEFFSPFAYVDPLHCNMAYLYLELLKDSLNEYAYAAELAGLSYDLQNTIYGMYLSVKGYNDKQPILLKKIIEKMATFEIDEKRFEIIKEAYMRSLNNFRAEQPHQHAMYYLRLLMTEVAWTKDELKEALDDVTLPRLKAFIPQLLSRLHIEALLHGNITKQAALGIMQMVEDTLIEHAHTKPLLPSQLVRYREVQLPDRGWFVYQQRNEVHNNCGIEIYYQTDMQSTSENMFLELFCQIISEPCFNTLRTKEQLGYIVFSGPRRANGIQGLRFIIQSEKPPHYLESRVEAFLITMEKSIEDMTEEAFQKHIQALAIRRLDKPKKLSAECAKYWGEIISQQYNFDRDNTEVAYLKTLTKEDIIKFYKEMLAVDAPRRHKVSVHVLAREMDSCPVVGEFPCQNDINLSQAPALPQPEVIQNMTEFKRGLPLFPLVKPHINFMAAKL

[3] = target: T1, Insulin-degrading enzyme; test: activators of endogenous IDE in HEK cells, dose response, cell-based, fluorescence polarization (AID 588439); format: functional
[4] = tested on: HEK293; test: HEK cell cytotoxicity by LDH release, dose response, cytotoxicity control for IDE activator project, fluorescence, HEK cells (AID 588440); format: functional, cell-based; settings: Homo sapiens;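 note: cytotoxicity by LDH release measuring loss of membrane integrity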
[5] = tested on: HEK293; test: optical interference in Abeta FP readout, dose response, artefact control for IDE activator project, biochemical, fluorescence polarization (AID 588442); format: functional, cell-based; settings: Homo sapiens
[6] = target: Mu-type opioid receptor (Homo sapiens, UniProt P35372); format: functional, cell-based;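 note: U2OS cells with beta-arrestin recruitment to OPRM1 by beta-gal complementation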
Sequence of Mu-type opioid receptor (P35372 whole entry): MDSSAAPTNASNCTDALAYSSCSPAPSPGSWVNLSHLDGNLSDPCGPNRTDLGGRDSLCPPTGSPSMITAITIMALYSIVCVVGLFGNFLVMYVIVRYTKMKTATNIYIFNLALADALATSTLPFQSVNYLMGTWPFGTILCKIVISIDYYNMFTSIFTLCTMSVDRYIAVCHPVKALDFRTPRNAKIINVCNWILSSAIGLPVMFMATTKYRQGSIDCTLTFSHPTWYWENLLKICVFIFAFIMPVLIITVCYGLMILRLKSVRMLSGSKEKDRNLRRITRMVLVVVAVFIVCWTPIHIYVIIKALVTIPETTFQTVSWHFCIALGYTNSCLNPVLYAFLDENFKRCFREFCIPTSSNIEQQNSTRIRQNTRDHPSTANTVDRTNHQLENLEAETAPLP

[7] = target: 5-hydroxytryptamine receptor 2A (Mus musculus, UniProt P35363); format: functional, cell-based;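 note: CHO-K1 cells with tagged receptor and beta-arrestin; agonist potency measured as compound-induced activation of the receptor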
Sequence of 5-hydroxytryptamine receptor 2A (P35363 whole entry): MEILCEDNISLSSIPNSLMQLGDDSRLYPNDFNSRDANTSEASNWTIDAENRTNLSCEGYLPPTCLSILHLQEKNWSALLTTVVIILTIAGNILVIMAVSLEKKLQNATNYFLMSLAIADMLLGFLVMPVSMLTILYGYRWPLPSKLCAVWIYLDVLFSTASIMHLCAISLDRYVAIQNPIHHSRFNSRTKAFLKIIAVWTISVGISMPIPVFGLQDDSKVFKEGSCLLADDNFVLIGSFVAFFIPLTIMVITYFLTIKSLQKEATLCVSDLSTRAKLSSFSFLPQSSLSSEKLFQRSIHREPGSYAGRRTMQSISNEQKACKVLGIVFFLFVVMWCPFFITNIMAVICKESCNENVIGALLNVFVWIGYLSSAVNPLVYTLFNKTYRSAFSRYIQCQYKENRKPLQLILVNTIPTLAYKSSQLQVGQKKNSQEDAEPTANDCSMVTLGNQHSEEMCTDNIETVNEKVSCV

[8] = target: NAD-dependent protein deacylase sirtuin-5, mitochondrial (Homo sapiens, UniProt Q9NXA8); test: SIRT5 desuccinylase inhibitors, dose response, biochemical, fluorescence imaging, cherry-pick, set 5 (AID 720591);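 note: desuccinylation of succinyl peptide AMC substrate read as fluorescence after trypsin release; potency of inhibitors that lower fluorescence and may act on trypsin instead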
Sequence of NAD-dependent protein deacylase sirtuin-5, mitochondrial (Q9NXA8 whole entry): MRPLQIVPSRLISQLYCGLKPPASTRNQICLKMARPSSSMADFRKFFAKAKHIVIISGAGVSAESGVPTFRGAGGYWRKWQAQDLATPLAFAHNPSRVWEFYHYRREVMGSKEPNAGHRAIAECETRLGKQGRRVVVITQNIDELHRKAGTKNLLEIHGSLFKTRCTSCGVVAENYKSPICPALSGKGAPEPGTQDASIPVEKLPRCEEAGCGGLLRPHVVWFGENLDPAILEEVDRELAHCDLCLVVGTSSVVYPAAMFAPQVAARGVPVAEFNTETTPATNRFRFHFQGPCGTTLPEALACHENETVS

[9] = target: T2, Cytochrome P450 1A2 (Homo sapiens, UniProt P05177);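 note: PubChem cytochrome P450 panel assay, CYP1A2 panel member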
T2 sequence (P05177 whole entry): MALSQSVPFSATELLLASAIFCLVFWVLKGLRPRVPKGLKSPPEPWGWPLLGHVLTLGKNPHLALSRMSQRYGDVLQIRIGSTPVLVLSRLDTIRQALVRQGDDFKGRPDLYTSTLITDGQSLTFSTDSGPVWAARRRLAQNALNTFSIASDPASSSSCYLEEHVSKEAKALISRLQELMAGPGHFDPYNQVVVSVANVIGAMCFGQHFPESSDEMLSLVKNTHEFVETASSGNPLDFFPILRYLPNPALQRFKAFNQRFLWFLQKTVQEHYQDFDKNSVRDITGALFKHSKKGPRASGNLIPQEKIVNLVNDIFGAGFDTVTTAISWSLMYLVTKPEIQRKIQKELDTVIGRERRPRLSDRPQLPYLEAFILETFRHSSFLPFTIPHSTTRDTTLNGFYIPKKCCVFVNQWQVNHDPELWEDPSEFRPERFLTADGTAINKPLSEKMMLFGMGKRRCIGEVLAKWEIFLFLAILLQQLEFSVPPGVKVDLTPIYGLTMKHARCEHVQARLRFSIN

[10] = target: Voltage-gated inwardly rectifying potassium channel KCNH2 (Homo sapiens, UniProt Q12809); settings: Potency;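 note: confirmatory quantitative high-throughput screen measuring inhibition of hERG channel activity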
Sequence of Voltage-gated inwardly rectifying potassium channel KCNH2 (Q12809 whole entry): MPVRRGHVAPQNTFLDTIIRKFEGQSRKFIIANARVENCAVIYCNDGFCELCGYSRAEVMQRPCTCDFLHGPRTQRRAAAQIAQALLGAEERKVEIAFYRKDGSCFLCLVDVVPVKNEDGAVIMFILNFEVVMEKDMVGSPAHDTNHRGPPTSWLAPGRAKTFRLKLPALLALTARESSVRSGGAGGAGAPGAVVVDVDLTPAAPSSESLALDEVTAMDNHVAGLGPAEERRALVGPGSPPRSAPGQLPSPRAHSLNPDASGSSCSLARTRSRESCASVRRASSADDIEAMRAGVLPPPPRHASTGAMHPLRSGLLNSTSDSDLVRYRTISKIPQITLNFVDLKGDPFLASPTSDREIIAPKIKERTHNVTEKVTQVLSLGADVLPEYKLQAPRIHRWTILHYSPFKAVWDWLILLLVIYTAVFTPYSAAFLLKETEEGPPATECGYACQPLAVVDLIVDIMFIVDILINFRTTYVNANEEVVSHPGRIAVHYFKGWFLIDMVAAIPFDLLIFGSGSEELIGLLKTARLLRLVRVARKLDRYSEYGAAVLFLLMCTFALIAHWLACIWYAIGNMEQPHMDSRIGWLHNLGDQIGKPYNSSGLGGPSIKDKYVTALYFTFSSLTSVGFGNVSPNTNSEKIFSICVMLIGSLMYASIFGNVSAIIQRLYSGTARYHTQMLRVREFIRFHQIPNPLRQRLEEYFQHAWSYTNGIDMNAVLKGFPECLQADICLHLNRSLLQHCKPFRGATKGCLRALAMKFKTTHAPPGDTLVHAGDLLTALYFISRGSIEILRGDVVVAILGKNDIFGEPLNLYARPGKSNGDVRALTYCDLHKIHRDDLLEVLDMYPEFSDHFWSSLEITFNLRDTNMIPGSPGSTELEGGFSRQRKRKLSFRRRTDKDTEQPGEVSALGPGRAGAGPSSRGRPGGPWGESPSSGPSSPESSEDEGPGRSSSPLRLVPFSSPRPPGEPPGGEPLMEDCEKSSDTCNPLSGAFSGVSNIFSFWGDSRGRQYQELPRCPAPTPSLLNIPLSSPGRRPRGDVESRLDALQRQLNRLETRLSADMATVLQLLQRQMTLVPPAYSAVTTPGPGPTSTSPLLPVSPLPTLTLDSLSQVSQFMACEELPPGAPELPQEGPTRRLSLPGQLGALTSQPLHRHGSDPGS

[11] = target: T3, Sentrin-specific protease 8 (Homo sapiens, UniProt Q96LD8); test: SENP8 protease inhibitors, SAR follow-up, biochemical, luminescence (AID 504501); format: functional
T3 sequence (Q96LD8 whole entry): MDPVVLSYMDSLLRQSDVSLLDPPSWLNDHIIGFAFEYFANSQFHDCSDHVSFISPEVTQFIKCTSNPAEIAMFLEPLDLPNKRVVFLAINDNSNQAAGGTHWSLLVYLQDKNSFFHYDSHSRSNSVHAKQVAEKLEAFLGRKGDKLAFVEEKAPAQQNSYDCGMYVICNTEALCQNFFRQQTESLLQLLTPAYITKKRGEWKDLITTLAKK

[12] = target: T4, Caspase-3 (Homo sapiens, UniProt P42574); test: SAR Analysis of small molecule inhibitors of Sentrin-specific proteases (SENPs) using a Caspase-3 Selectivity assay. [Related pubchem assays (depositor defined):AID2540, AID2599, AID434973, AID489001]; format: functional
T4 sequence (P42574 whole entry): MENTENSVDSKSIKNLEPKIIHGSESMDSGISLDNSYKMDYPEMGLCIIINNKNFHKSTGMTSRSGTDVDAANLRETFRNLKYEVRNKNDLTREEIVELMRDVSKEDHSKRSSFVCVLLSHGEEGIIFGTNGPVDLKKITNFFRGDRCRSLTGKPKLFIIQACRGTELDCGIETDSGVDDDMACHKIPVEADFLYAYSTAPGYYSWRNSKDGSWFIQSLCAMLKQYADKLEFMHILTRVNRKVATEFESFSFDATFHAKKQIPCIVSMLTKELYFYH

[13] = target: T5, Sentrin-specific protease 6 (Homo sapiens, UniProt Q9GZR1); test: SAR Analysis of small molecule inhibitors of Sentrin-specific protease 6 (SENP6) using a Luminescent assay. [Related pubchem assays (depositor defined):AID2582, AID2599]; format: functional
T5 sequence (Q9GZR1 whole entry): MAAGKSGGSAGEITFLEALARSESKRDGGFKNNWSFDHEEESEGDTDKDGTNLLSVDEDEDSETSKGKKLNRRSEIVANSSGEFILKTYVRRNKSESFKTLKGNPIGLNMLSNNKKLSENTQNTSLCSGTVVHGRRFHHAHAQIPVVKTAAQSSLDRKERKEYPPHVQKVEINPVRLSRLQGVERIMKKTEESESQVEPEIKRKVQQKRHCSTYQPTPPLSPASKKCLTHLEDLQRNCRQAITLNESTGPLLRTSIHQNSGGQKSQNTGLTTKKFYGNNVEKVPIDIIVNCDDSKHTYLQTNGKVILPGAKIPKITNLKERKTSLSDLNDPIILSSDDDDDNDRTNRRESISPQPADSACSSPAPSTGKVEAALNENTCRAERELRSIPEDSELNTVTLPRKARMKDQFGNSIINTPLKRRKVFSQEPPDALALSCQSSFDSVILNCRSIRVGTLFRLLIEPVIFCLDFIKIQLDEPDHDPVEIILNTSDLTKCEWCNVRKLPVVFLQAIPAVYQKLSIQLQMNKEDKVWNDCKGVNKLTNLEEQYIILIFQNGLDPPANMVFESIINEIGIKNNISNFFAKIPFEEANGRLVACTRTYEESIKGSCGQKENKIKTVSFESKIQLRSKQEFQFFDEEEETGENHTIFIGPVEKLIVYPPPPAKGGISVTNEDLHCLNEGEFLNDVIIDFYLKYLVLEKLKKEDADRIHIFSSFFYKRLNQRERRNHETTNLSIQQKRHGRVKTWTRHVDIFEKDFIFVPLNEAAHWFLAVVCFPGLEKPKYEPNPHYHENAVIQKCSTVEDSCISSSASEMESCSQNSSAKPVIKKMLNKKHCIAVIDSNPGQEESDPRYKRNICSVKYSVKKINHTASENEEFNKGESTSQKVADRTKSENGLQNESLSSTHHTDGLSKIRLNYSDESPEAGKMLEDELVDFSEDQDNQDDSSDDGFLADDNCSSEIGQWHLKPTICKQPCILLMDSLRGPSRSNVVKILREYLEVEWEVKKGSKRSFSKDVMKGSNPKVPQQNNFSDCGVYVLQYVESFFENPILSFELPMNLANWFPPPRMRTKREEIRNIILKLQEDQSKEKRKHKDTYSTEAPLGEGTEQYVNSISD

[14] = target: T6, Sentrin-specific protease 7 (Homo sapiens, UniProt Q9BQF6); test: SENP7 protease inhibitors, SAR follow-up, biochemical, luminescence (AID 504497); format: functional
T6 sequence (Q9BQF6 whole entry): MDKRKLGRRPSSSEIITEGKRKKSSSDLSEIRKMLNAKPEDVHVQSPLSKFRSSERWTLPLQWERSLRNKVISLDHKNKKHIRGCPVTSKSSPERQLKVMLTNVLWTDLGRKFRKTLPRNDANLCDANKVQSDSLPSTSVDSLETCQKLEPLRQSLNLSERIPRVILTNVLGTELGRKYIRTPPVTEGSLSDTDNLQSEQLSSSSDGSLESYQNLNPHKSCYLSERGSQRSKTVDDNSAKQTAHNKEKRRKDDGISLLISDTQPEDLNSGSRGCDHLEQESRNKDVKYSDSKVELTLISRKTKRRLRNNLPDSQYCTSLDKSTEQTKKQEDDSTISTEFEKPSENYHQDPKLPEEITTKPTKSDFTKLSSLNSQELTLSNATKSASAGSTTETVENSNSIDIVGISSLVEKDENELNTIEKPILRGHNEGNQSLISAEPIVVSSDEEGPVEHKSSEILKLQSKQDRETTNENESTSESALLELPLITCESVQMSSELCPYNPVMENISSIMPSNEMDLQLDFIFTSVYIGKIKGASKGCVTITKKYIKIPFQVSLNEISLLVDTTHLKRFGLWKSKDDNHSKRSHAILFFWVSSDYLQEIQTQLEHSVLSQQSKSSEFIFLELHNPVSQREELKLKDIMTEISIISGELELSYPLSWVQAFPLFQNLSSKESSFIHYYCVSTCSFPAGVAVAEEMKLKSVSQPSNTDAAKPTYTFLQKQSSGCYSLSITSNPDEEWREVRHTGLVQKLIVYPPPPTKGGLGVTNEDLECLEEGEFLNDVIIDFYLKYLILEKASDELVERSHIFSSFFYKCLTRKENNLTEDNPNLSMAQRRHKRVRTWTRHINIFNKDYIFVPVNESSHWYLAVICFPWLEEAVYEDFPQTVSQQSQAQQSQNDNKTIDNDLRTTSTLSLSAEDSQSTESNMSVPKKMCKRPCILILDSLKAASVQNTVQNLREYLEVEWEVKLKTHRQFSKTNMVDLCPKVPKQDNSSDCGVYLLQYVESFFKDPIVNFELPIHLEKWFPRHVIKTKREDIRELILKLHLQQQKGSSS

Row | IC50 [12] | IC50 [13] | IC50 [14] | SMILES | AC50 [1] | EC50 [2] | EC50 [3] | IC50 [4] | EC50 [5] | EC50 [6] | EC50 [7] | AC50 [8] | AC50 [9] | AC50 [10] | IC50 [11]
1 | – | – | – | CCCCCCCC/C=C\CCCCCCCC(=O)NCCc1ccc(O)c(O)c1 [OLEOYL DOPAMINE] | 2.59 µM (active) | > 54.7 µM (inactive) | 8.94 µM (active) | 30.5 µM (inactive) | > 54.7 µM (inactive) | 92.3 µM (inactive) | 0.957 µM (active) | 18.1 µM (active) | 20 µM (inconclusive) | 35.5 µM (inconclusive) | –
2 | > 99 µM (inactive) | > 99 µM (inactive) | > 99 µM (inactive) | O=C(NCCc1ccccc1)C(=O)c1c[nH]c2ccccc12 | – | – | – | – | – | – | – | – | – | – | > 99 µM (inactive)
